Test results from patent publication US9872514B2, “Compounds, compositions, and methods for reducing or eliminating bitter taste” (Chromocell Corporation, priority 2010, dated 2018).
Like-named read-outs stand apart in the source and are kept apart here.

Experiments:
Assay type in all cases: in vivo, humans
[1] = tested on: bitter taste of an aqueous solution of KCl; assay: Sip and spit bitterness rating of aqueous KCl test solutions; conditions: aqueous KCl 4.85 g/L, 1% EtOH, bitterness scored 0-15 vs KCl standard, dash = none of the tested conc.; for minimal effective concentration: Homo sapiens
Protocol: An amount of this stock compound solution is then added to an aqueous KCl solution. Enough EtOH is then added to the resulting stock compound/KCl solution so that the final KCl test solution contains 1% EtOH. KCl solution standards were similarly prepared by dissolving various amounts of KCl in water and ethanol without adding any test compound.
The effect of the test compounds an the perception of the bitter taste of an aqueous solution of KCl in humans was evaluated using a “sip and spit” test as follows.
(§1) A set of KCl solution standards was developed and each standard solution was assigned a bitterness taste score of 0-15 (corresponding to aqueous KCl concentrations of 0 mM-120 mM). Panelists were trained to recognize these standards. In addition, before each day of testing, panelists were tested to see if they could determine differences in taste between the standard solutions. If a panelist was unable to recognize a change in KCl concentration, they were excluded from the panel for that day.
(§2) In a blind taste test, panelists were asked to compare the bitter taste of a small quantity (e.g., 8 ml) of each of the KCl Test Solutions to the taste of a KCl solution standard, without swallowing (see, e.g., Table 1). Specifically, panelists were asked to rate the bitterness of each KCl Test Solution on a scale of 0-15 using the same scale developed for the KCl solution standards. Each sample was tested in 2-4 discrete taste test experiments. Panelists were asked to rinse with water, eat a cracker, and wait approximately 10 minutes between samples.

[2] = tested on: bitter taste of KCl foodstuff slurries; assay: Two-alternative forced choice (2AFC) sip and spit test of KCl turkey foodstuff slurries; conditions: Homo sapiens, turkey slurry, 1.6% KCl, 2AFC vs KCl slurry standard, dash = none of the tested conc.
Protocol: Edible KCl food compositions (“KCl test foodstuff slurries”) were prepared as follows. Dehydrated, salt-free turkey powder was weighed and mixed with various amounts of KCl and/or NaCl and then solubilized with boiling water to create a homogenized solubilized turkey slurry. Varying amounts of the test compounds were dissolved in an amount of ethanol or water (depending on the solubility of the compound) to create a 5 mg/mL stock compound solution. An amount of this stock compound solution was then added to the turkey slurry. Enough EtOH is then added to the resulting stock compound/turkey slurry so that the slurry contains 1% EtOH. The slurry was again homogenized by boiling and mixing and allowed to cool to yield the final KCl test foodstuff slurry for taste testing KCl foodstuff slurry standards were similarly prepared without any test compound.
The effect of the test compounds on the perception of the bitter taste of KCl foodstuff slurries in humans was evaluated using a two-alternative-forced-choice “sip and spit” test as follows.
In a blind taste test, panelists received two portions of turkey slurry—one portion being the KCl foodstuff slurry standard and the other being one of the KCl test foodstuff slurries (each prepared as described in Example 5). The panelists tasted each of the portions by sipping and spitting. Each sample was tested in 2-4 discrete taste test experiments. Panelists were asked to rinse with water, eat a cracker, and wait about 10 minutes between samples. In each case, the panelists were asked to compare the bitter taste of the two turkey samples to each other (i.e., panelists were asked to indicate which sample was less bitter).

[3] = tested on: bitter taste of an aqueous solution of potassium lactate; assay: Sip and spit bitterness rating of aqueous potassium lactate test solutions; conditions: Homo sapiens; aqueous potassium lactate 41 g/L, 1% EtOH; dash = none of the tested conc.; read-out: Conc. Where Decrease in Bitter Taste Was Discerned
Protocol: as §1, §2
Edible potassium lactate solution compositions (“potassium lactate test solutions”) were prepared by first dissolving varying amounts of the test compounds in an amount of ethanol or water (depending on the solubility of the compound) to create a 5 mg/mL stock compound solution. An amount of this stock compound solution is then added to an aqueous potassium lactate solution. Enough EtOH is then added to the resulting stock compound/potassium lactate solution so that the final potassium lactate test solution contains 1% EtOH. Potassium lactate solution standards were similarly prepared by dissolving various amounts of potassium lactate in water and ethanol without adding any test compound.
The effect of the test compounds on the perception of the bitter taste of an aqueous solution of potassium lactate in humans was evaluated using the “sip and spit” test described in Example 2.

[4] = tested on: bitter taste of an aqueous solution of KCl; assay: Latin Square-2AFC sip and spit test of aqueous KCl solutions; conditions: Homo sapiens; aqueous KCl 4.85 g/L, Latin Square-2AFC vs KCl standard; dash = none of the tested conc.; read-out: Conc. at Which At Least 50% of Panelist Discerned Decrease in Bitter Taste and p ≦ 0.1
Protocol: The effect of the test compounds on the perception of the bitter taste of an aqueous solution of KCl in humans was evaluated using a “sip and spit” test using a Latin Square-2AFC testing method as follows.
In a blind taste test, panelists were asked to compare the bitter taste of a small quantity (e.g., 8 ml) of a KCl Test Solution to the taste of a KCl solution standard (prepared as described in Example 1), without swallowing. NaCl solution standards were prepared as described in Example 1.
In order to eliminate any effects of sample order, a complete Latin Square design was employed so that each possible order of sample presentation was utilized across subjects. Each sample was tested in several discrete taste test experiments. Panelists were asked to rinse with water, eat a cracker, and wait about 10 minutes between samples. In each case, the panelists were asked to choose the sample which tasted “less bitter.” Illustrative results of the aqueous solution Latin Square-2AFC testing are presented in Table 5.

[5] = read-out: Conc. Where Decrease in Bitter Taste Discerned and p ≦ 0.1
[6] = read-out: Conc. Where Decrease in Bitter Taste Was Discerned
[7] = read-out: Conc. at Which At Least 50% of Panelist Discerned Decrease in Bitter Taste

Row | Structure (SMILES) | minimal effective concentration [1, 6] | other results
1 | C/C=C/C(=O)C1=C(C)CCCC1(C)C [Compound 1] | 0.1 µg/mL | minimal effective concentration [1, 5]: 0.1 µg/mL
2 | CC(=O)CCC1=C(C)CCCC1(C)C [Compound 4] | – | minimal effective concentration [1, 5]: 1 µg/mL
3 | CC(=O)/C=C/C1C(C)=CCCC1(C)C (stereo not shown) [Compound 5] | 0.1 µg/mL | minimal effective concentration [1, 5]: 0.1 µg/mL
4 | CC(=O)CCC1C(C)=CCCC1(C)C (stereo not shown) [Compound 6] | – | minimal effective concentration [1, 5]: 1 µg/mL
5 | CC(C)=CCCC(C)CCO (stereo not shown) [Compound 7] | 10 µg/mL | –
6 | CC(C)=CCCC(C)CCOC=O (stereo not shown) [Compound 8] | 10 µg/mL | minimal effective concentration [2, 7]: 1 µg/mL
7 | CC(=O)OCCC(C)CCC=C(C)C (stereo not shown) [Compound 9] | 10 µg/mL | –
8 | CCCCC(=O)OCCC(C)CCC=C(C)C (stereo not shown) [Compound 12] | 10 µg/mL | –
9 | CC(C)=CCCC(C)CC=O (stereo not shown) [Compound 13] | 1 µg/mL | –
10 | CC(CC=O)CCCC(C)(C)O (stereo not shown) [Compound 17] | 1 µg/mL | –
11 | COC(CC(C)CCCC(C)(C)O)OC (stereo not shown) [Compound 18] | 10 µg/mL | –
12 | CC(=O)OC/C=C(\C)CCC=C(C)C [Compound 21] | 10 µg/mL | minimal effective concentration [2, 7]: 10 µg/mL
13 | CCCC(=O)OC/C=C(\C)CCC=C(C)C [Compound 23] | – | minimal effective concentration [1, 5]: 1 µg/mL
14 | CC(C)=CCC/C(C)=C/COC(=O)CC(C)C [Compound 24] | 10 µg/mL | –
15 | CC(C)=CCC/C(C)=C\COC(=O)CC(C)C [Compound 25] | – | minimal effective concentration [1, 5]: 1 µg/mL
16 | CC(=O)CC/C=C(\C)CCC=C(C)C [Compound 29] | 1 µg/mL | –
17 | CCCC(=O)OC/C=C(/C)CCC=C(C)C [Compound 33] | 1 µg/mL | –
18 | CC(=O)Oc1c(C)c(C)c2c(c1C)CC[C@@](C)(CCCC(C)CCCC(C)CCCC(C)C)O2 (stereo partly shown) [Compound 45] | 1 µg/mL | –
19 | Cc1cc(O)cc2c1O[C@](C)(CCC[C@H](C)CCC[C@H](C)CCCC(C)C)CC2 [Compound 49] | 10 µg/mL | –
20 | CC(=O)Oc1c(C)c(C)c2c(c1C)CCC(C)(CCCC(C)CCCC(C)CCCC(C)C)O2 (stereo not shown) [Compound 50] | 1 µg/mL | –
21 | O=C(O)c1ccccc1 [Compound 54] | – | Conc. Where Decrease in Bitter Taste Was Discerned [1]: 10 ppm
22 | CCCOC(=O)c1ccccc1 [Compound 56] | 1 µg/mL | –
23 | O=C(O)c1ccc(O)cc1 [Compound 58] | 10 µg/mL | minimal effective concentration [1, 5]: 10 µg/mL
24 | O=C(O)c1ccc(O)cc1O [Compound 59] | 1 µg/mL | –
25 | COC(=O)c1ccc(O)cc1 [Compound 61] | 1 µg/mL | –
26 | CCOC(=O)c1ccc(O)cc1 [Compound 62] | 10 µg/mL | –
27 | CCCCOC(=O)c1ccc(O)cc1 [Compound 63] | – | minimal effective concentration ([2]; read-out: Conc. at Which At Least 50% of Panelist Discerned Decrease in Bitter Taste and p ≦ 0.1): 30 µg/mL; minimal effective concentration [1, 5]: 1 µg/mL

Row | Structure (SMILES) | minimal effective concentration [1, 6] | other results
28 | COC(=O)c1ccccc1OC [Compound 68] | 10 µg/mL | –
29 | CC(O)c1ccccc1 (stereo not shown) [Compound 71] | – | minimal effective concentration [1, 5]: 1 µg/mL
30 | CC(C)CC(=O)O[C@@H]1C[C@@H]2CC[C@@]1(C)C2(C)C [Compound 78] | 1 µg/mL | –
31 | CC(=O)OC1C2(C)CCC(C2)C1(C)C (stereo not shown) [Compound 81] | 10 µg/mL | –
32 | CC(=O)O[C@@H]1C[C@@H]2CC[C@@]1(C)C2(C)C [Compound 88] | – | minimal effective concentration [2, 7]: 1 µg/mL; minimal effective concentration [1, 5]: 1 µg/mL
33 | C[C@@H]1[C@@H](O)C[C@H]2C[C@@H]1C2(C)C [Compound 90] | 1 µg/mL | –
34 | CC1(C)[C@H]2CC[C@H](CO)[C@@H]1C2 [Compound 92] | 1 µg/mL | minimal effective concentration [1, 5]: 1 µg/mL
35 | CC(=O)OCC1=CC[C@@H]2C[C@H]1C2(C)C [Compound 94] | 10 µg/mL | –
36 | O=C1C[C@@H](c2ccccc2)Oc2cc(O)cc(O)c21 [Compound 97] | 1 µg/mL | –
37 | COc1ccc(-c2cc(=O)c3c(OC)c(OC)c(OC)cc3o2)cc1 [Compound 99] | 1 µg/mL | –
38 | COc1cc(OC)c2c(=O)cc(-c3ccccc3)oc2c1 [Compound 100] | 10 µg/mL | –
39 | O=c1cc(-c2ccccc2)oc2cc(O)ccc12 [Compound 101] | 1 µg/mL | –
40 | COc1cc(-c2oc3cc(O)cc(O)c3c(=O)c2O)ccc1O [Compound 102] | 1 µg/mL | minimal effective concentration [3]: 1 µg/mL; minimal effective concentration [2, 7]: 10 µg/mL; minimal effective concentration [1, 5]: 1 µg/mL
41 | Oc1cc(O)c2c(c1)O[C@H](c1ccc(O)c(O)c1)[C@@H](O)C2 [Compound 104] | 10 µg/mL | –
42 | Oc1cc(O)c2c(c1)O[C@@H](c1cc(O)c(O)c(O)c1)[C@H](O)C2 [Compound 106] | 1 µg/mL | –
43 | O=C(O[C@@H]1Cc2c(O)cc(O)cc2O[C@@H]1c1ccc(O)c(O)c1)c1cc(O)c(O)c(O)c1 [Compound 107] | 10 µg/mL | –
44 | O=C(O[C@@H]1Cc2c(O)cc(O)cc2O[C@@H]1c1cc(O)c(O)c(O)c1)c1cc(O)c(O)c(O)c1 [Compound 108] | 1 µg/mL | –
45 | O=c1c(O)c(-c2ccc(O)c(O)c2)oc2cc(O)cc(O)c12 [Compound 111] | – | minimal effective concentration [2, 7]: 1 µg/mL; minimal effective concentration [1, 5]: 10 µg/mL
46 | O=C(/C=C/C=C/c1ccc2c(c1)OCO2)N1CCCCC1 [Compound 113] | 1 µg/mL | –
47 | O=Cc1ccc2c(c1)OCO2 [Compound 114] | – | minimal effective concentration [4]: 25 µg/mL
48 | CC(C)C(=O)OCc1ccc2c(c1)OCO2 [Compound 117] | 10 µg/mL | –
49 | C/C=C/c1ccc2c(c1)OCO2 [Compound 118] | – | minimal effective concentration [3]: 1 µg/mL
50 | C=C1CC[C@H]2O[C@]2(C)CC[C@@H]2[C@@H]1CC2(C)C [Compound 121] | 40 µg/mL | minimal effective concentration [1, 5]: 40 µg/mL
51 | COc1ccc2c(c1)[nH]c1c(C)nccc12 [Compound 130] | 40 µg/mL | –
52 | COc1c(C(=O)CC(=O)c2ccccc2)ccc2occc12 [Compound 132] | 1 µg/mL | –
53 | O=C1CC(C(=O)O)C(C(=O)O)O1 (stereo not shown) [Compound 133] | 2 µg/mL | minimal effective concentration [1, 5]: 2 µg/mL
